According to publication PMC6383948, “Evaluation of a class of isatinoids identified from a high-throughput screen of human kinase inhibitors as anti-Sleeping Sickness agents” (PLoS Neglected Tropical Diseases, 2019):
Values joined by “and” are separate entries in the source; they are usually repeats but may differ in a detail not shown here. Equal entries are not always repeated. Where two headings read alike, the source gives them in different places.

What was measured:
[1] = Shake-flask octanol-water Log D7.4; format: physicochemical; settings: pH 7.4, octanol-water shake-flask
Procedure: Shake-flask octanol-water distribution coefficient at pH 7.4 (Log D7.4). The aqueous solution used is 10 mM sodium phosphate pH 7.4 buffer. The method has been validated for Log D7.4 ranging from -2 to 5.0.

[2] = tested on: S. mansoni adults and somules; assay: S. mansoni phenotypic assay, adults and somules (severity score); format: cell-based, Schistosoma mansoni (NMRI isolate); settings: for activity against S. mansoni adults and/or somules: 10 μM; for Adult severity score (10 μM): adults; for Adult severity score (10 μM) / Somule severity score (10 μM): score 0-4; for Somule severity score (10 μM): somules
Procedure: Maintenance of the Schistosoma mansoni life cycle, preparation of somules (post-infective larvae) and adult worms (≥42-days-old), and co-incubation of these stages with test compounds were as described. An NMRI isolate of S. mansoni was used for all whole-organism screens.
Somules (40 units/well/96w round-bottomed plate) or adults (five paris/well/24w plate) were cultured in the presence of compounds at 10 µM and phenotypic changes observed as a function of time using an Zeiss Axiovert A1 inverted microscope (Table S4). A constrained nomenclature was used to describe the effects of compounds on parasites (changes in shape, motility and density). To generate a partially quantitative output for comparing drug effects, each descriptor was awarded a score of 1 and these were summed to a maximum score of 4 [7-10]: evidence of degeneracy or death was awarded the maximum score of 4. For adults specifically, damage to the tegument (outer surface) was also awarded a score of 4 based on the indication that damage to the patrasite’s surface is lethal in vivo [11]. Assays were performed twice and representative data are shown.

[3] = Mouse pharmacokinetics, blood and brain levels after IP dose; format: in vivo; settings: for Brain level: LLOQ = 25 ng/g; for AUC0-t / Cmax / Tmax: blood
Procedure: NEU-4391 was administered intraperitoneally (IP) to two groups of female NMRI mice (Group 1 n = 3; Group 2 n = 6). The compound was prepared in 1% (v/v) DMSO:99% (v/v) 20% (w/v) sulfobutyl ether-beta-cyclodextrin (SBE-β-CD) (Captisol) in water and the dosing volume was 10 mL/kg for a total dose of 10 mg/kg. Food and tap water were available ad libitum. Following IP dosing, Group 1 blood samples were collected from the tail vein into capillary tubes containing K2EDTA at the following time-points: 0.0833, 0.25, 0.5, 1, 2, 4, 6, 8 and 24 h.
In order to obtain simultaneous blood and brain samples, Group 2 mice were placed under terminal anaesthetic (isoflurane) and blood samples (0.3 mL) collected from the retro-orbital sinus into K2EDTA tubes at 0.5 h (n = 3) and 4 h (n = 3) after compound administration. Immediately following blood sample collection, death was confirmed by cervical dislocation and the brain removed. Aliquots of each blood sample were diluted in an equal volume of water. Mouse brain samples were weighed, water was added at a 1/2 (w/v) ratio (brain/water), and then homogenized. Both blood and brain samples were stored -80°C until analysis.
Diluted blood and brain homogenates were processed under standard liquid-liquid extraction procedures using acetonitrile containing an internal standard (Nifedipine) and analyzed by LC-MS/MS. Non-compartmental analysis was performed using the Phoenix pharmacokinetic software version 1.4 (Certara) and Cmax, tmax, AUClast, AUC, and t1/2 were estimated.

[4] = IP 10 mg/kg single dose, individual mice 001F-003F, 10 mg/kg

For `CN(C)S(=O)(=O)c1ccc(N/N=C2\C(=O)Nc3ccccc32)cc1` [NEU-2118, (Z)-N,N-Dimethyl-4-(2-(2-oxoindolin-3-ylidene)hydrazinyl)benzenesulfonamide], the logD [1] was 3.4, the “activity against S. mansoni adults and/or somules” value [2] was “moderate and variable activity” and the “Adult severity score (10 μM)” value ([2]; 3h) was 3. The “Adult severity score (10 μM)” value ([2]; 6h) was 3, the “Adult severity score (10 μM)” value ([2]; 24h) was 3 and the “Adult severity score (10 μM)” value ([2]; 48h) was 3. For the same compound, the “Somule severity score (10 μM)” value ([2]; 24h) was 0 and the “Somule severity score (10 μM)” value ([2]; 48h) was 0.
For `CNS(=O)(=O)c1ccc(N/N=C2\C(=O)Nc3ccccc32)cc1` [NEU-2124, (Z)-N-Methyl-4-(2-(2-oxoindolin-3-ylidene)hydrazinyl)benzenesulfonamide], the logD [1] was 2.8, the “activity against S. mansoni adults and/or somules” value [2] was “moderate and variable activity” and the “Adult severity score (10 μM)” value ([2]; 3h) was 2. The “Adult severity score (10 μM)” value ([2]; 6h) was 2, the “Adult severity score (10 μM)” value ([2]; 24h) was 2 and the “Adult severity score (10 μM)” value ([2]; 48h) was 2. For the same compound, the “Somule severity score (10 μM)” value ([2]; 24h) was 1 and the “Somule severity score (10 μM)” value ([2]; 48h) was 0.
For `CNS(=O)(=O)c1ccc(N/N=C2\C(=O)Nc3cccc(C=C(C)C)c32)cc1` [NEU-4391, (Z)-N-Methyl-4-(2-(4-(2-methylprop-1-en-1-yl)-2-oxoindolin-3-ylidene)hydrazinyl)benzenesulfonamide], the Brain level ([3]; 0.5 h after IP 10 mg/kg, individual mice N1-N3) was “<LLOQ”, the Blood level ([3]; 0.5 h after IP 10 mg/kg, individual mice N1-N3, LLOQ = 25 ng/mL, 10 mg/kg) was “<LLOQ and 43.3 ng/mL” and the Brain level ([3]; 4.0 h after IP 10 mg/kg, individual mice N1-N3) was “<LLOQ”. For the same compound, the Blood level ([3]; 4.0 h after IP 10 mg/kg, individual mice N1-N3, LLOQ = 25 ng/mL) was “<LLOQ”, the “Peripheral blood concentrations after 1 h” value ([3]; IP 10 mg/kg, Fig 6A) was “below the lower limit of quantitation” and the “concentration in the brain” value ([3]; IP 10 mg/kg, all time points) was “below the limit of detection”. For the same compound, the AUC0-t [3, 4] was 34.5 ng·h/mL and 39.2 ng·h/mL, the Cmax [3, 4] was 45.0 ng/mL and 56.5 ng/mL and the Tmax [3, 4] was 30 min. For the same compound, the concentration at 0.5 h ([3]; female, NMRI, mouse, whole blood, ip, 10 mg/kg, 0.5 h after IP 10 mg/kg, individual mice N1-N3, LLOQ = 25 ng/mL, read-out: Blood level) was 50.7 ng/mL, the concentration at 0.5 h ([3]; female, NMRI, mouse, whole blood, ip, 10 mg/kg, 0.5 h after IP 10 mg/kg, read-out: Blood level (mean)) was 47 ng/mL and the AUC0-t ([3]; female, NMRI, mouse, whole blood, ip, 10 mg/kg, IP 10 mg/kg single dose, individual mice 001F-003F, read-out: AUC0-t) was 39.3 ng·h/mL. The Cmax ([3]; female, NMRI, mouse, whole blood, ip, 10 mg/kg, IP 10 mg/kg single dose, individual mice 001F-003F, read-out: Cmax) was 48.9 ng/mL, the Tmax ([3]; female, NMRI, mouse, whole blood, ip, 10 mg/kg, IP 10 mg/kg single dose, individual mice 001F-003F, read-out: tmax) was 15 min and the AUC0-t ([3]; female, NMRI, mouse, whole blood, ip, 10 mg/kg, IP 10 mg/kg, mean of n = 3, read-out: AUC0-t (mean)) was 37.7 ng·h/mL. It also gave a Cmax ([3]; female, NMRI, mouse, whole blood, ip, 10 mg/kg, IP 10 mg/kg, mean of n = 3, read-out: Cmax (mean)) of 50.1 ng/mL, a Tmax ([3]; female, NMRI, mouse, whole blood, ip, 10 mg/kg, IP 10 mg/kg, n = 3, read-out: tmax (mean row, range)) of 15 to 30 min and a Cmax ([3]; female, NMRI, mouse, whole blood, ip, 10 mg/kg, IP 10 mg/kg, read-out: Cmax) of 130 nM.
